Data as given in patent US11040038B2, “Methods for treating diseases associated with abnormal ACVR1 expression and ACVR1 inhibitors for use in the same” (Sumitomo Dainippon Pharma Oncology, Inc., priority 2018, dated 2021).
Residue numbers refer to the chain shown, from its start. Like-named read-outs stand apart in the source and are kept apart here.

Experiments:
[1] = tested on: ALK2/ACVR1 having various mutations; experiment: Activity on ALK2/ACVR1 having various mutations (FIG. 8); assay type: biochemical
From the text: Biochemical Studies indicate that mutations in the intracellular domain can have activating effects on ACVR1/ALK2 kinase activity. Many of the known mutations enhance the activity of the receptor in response to the receptor ligand.

[2] = Comparison of concentration in plasma and brain tissue; assay type: in vivo, mice; conditions: 20 mg/kg
From the text: Additionally, a comparison of Compound 2 concentration in the plasma and brain tissue was made, the results of which are in FIG. 4B and Table 6.

[3] = Preliminary brain PK study; assay type: in vivo; conditions: mouse, mice, brain tissue
Procedure: In order to be an effective treatment for DIPG, Compound 2 needs to distribute to the brain and more importantly, achieve fairly deep penetration to the pons region of the brain. To assess the general distribution of Compound 2 to the brain, a preliminary brain PK study was conducted. Brain tissue concentrations show very good distribution to the brain (FIG. 4A).

ACVR1 R258G = target: T1, ACVR1 R258G (Homo sapiens, UniProt Q04771, R258G); experiment: ACVR1 kinase assay, casein substrate, 33P-ATP, filter binding; assay type: biochemical; conditions: 10 μM ATP
T1 sequence (Q04771 21-509 R258G): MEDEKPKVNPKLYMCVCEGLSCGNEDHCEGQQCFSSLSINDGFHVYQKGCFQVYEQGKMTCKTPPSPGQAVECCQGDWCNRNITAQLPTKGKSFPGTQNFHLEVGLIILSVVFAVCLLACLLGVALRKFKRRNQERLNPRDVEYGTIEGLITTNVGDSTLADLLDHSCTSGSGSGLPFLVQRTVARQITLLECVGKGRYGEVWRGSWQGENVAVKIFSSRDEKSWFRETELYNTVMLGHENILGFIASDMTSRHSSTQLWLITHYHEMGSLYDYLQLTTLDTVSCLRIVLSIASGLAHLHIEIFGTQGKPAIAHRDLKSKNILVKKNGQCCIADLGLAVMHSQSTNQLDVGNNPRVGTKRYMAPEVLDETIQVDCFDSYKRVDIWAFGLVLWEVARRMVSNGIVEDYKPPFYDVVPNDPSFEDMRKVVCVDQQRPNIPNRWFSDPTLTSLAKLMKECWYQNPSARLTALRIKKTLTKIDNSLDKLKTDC
Procedure: (§1) In brief, casein-based substrates were prepared. The respective ACVR1 kinase was added to the substrate mixture and hot/cold 33P-ATP (10 μM) was added to initiate the reaction. The activity was then measured with a filter binding method.
(§2) The IC50 values against the kinases are listed below in Table 3.

ACVR1 Wild Type = target: T2, ACVR1 Wild Type (Homo sapiens, UniProt Q04771); experiment: as above; assay type: biochemical; conditions: 10 μM ATP
T2 sequence (Q04771 21-509): T1 sequence (Q04771 21-509 R258G) with G238R
Procedure: as §1, §2

ACVR1 R206H = target: T3, ACVR1 R206H (Homo sapiens, UniProt Q04771, R206H); experiment: as above; assay type: biochemical; conditions: 10 μM ATP
T3 sequence (Q04771 21-509 R206H): T1 sequence (Q04771 21-509 R258G) with R186H, G238R
Procedure: as §1, §2

[4] = Oral pharmacokinetics in a single human DIPG patient; assay type: in vivo; conditions: free base, nominal 240 mg/m2 PO
Procedure: Compound 2 free base was tested in humans. Oral pharmacokinetics of Compound 2 were determined in a single human patient for the treatment of DIPG. The formulation was free base Compound 2 by gelatin capsule daily for 15 days, followed by a 20-day suspension period. Dosing was resumed by dissolving in juice and administering via nasogastric tube for 9 days. The nominal dose is 240 mg/m2 (PO). Blood samples were collected at four (4) time points and the drug concentrations are determined by LC-MS/MS.
Additional PK parameters were evaluated.

[5] = tested on: hepcidin expression in HepG2 cells; experiment: Inhibition of hepcidin expression in HepG2 cells (qPCR); assay type: cell-based; conditions: Homo sapiens
Procedure: To evaluate the in vitro efficacy of Compound 2, HepG2 cells were stimulated with the ALK2 ligand BMP-2 in the presence or absence of various concentrations of Compound 2 and the resulting levels of hepcidin expression were measured by qPCR. The results shown in FIG. 2A, reveal a strong, dose responsive inhibition of hepcidin transcription by Compound 2 (EC50<1 nM). Effects on basal hepcidin transcription were also measured (in the absence of BMP-2 stimulation) and the results are shown in FIG. 2B. Under these experimental conditions, Compound 2 inhibited hepcidin expression in a dose responsive manner (IC50˜100 nM).

[6] = Table 4, route and dose not given
[7] = Table 5, route and dose not given

**Q.** With `COc1cc(Nc2nccc(Nc3cccnc3-c3ccccn3)n2)ccc1N1CCN(C)CC1` [Compound 2, N^4-(2,2′-bipyridin-3-yl)-N^2-(3-methoxy-4-(4-methylpiperazin-1-yl)phenyl)pyrimidine-2,4-diamine] as the compound, how does the “Inhibition of ALK2 receptors having various mutations” value [1] read?
**A.** effective in inhibiting ALK2 receptors having various mutations

**Q.** What about the Cmax ([2]; CD-1, mouse, po, brain) of the same compound?
**A.** 1690 ng/g

**Q.** And the Cmax ([2]; CD-1, mouse, po, plasma)?
**A.** 378 ng/mL

**Q.** What about the AUC ([2]; CD-1, mouse, po, plasma, read-out: AUC) of the same compound?
**A.** 2340 ng·h/mL

**Q.** What about the AUC ([2]; brain) of the same compound?
**A.** 7,765 ng/g · hr

**Q.** What about the AUC(0-t) [3, 6] of the same compound?
**A.** 750 ng·h/mL

**Q.** And the Cmax [3, 6]?
**A.** 691 ng/g

**Q.** And the Tmax [3, 6]?
**A.** 4.98 min

**Q.** And the half-life [3, 6]?
**A.** 73.8 min

**Q.** What about the AUC(0-inf) ([3]; Table 4, route and dose not printed (FIG. 4A: intravenous and oral)) of the same compound?
**A.** 758 ng·h/mL

**Q.** What about the AUC(0-t) [3, 7] of the same compound?
**A.** 10300 ng·h/mL

**Q.** And the Cmax [3, 7]?
**A.** 2740 ng/g

**Q.** What about the Tmax [3, 7] of the same compound?
**A.** 108 min

**Q.** What about the half-life [3, 7] of the same compound?
**A.** 154 min

**Q.** And the AUC(0-inf) ([3]; Table 5, route and dose not printed (FIG. 4A: intravenous and oral))?
**A.** 10300 ng·h/mL

**Q.** What about the IC50 (ACVR1 R258G) of the same compound?
**A.** 51.6 nM

**Q.** And the IC50 (ACVR1 Wild Type)?
**A.** 4.5 nM

**Q.** And the IC50 (ACVR1 R206H)?
**A.** 3.8 nM

**Q.** What about the “Oral absorption, detection in plasma” value [4] of the same compound?
**A.** detected in plasma 24 hours post-dosing

**Q.** What about the EC50 ([5]; BMP-2 stimulation, qPCR, read-out: EC50, inhibition of hepcidin transcription) of the same compound?
**A.** < 1 nM

**Q.** What about the IC50 ([5]; absence of BMP-2 stimulation, read-out: IC50, inhibition of basal hepcidin expression) of the same compound?
**A.** ~100 nM
